Structures can show the parent of a compound that is named as a salt. Where two headings read alike, the source gives them in different places.

Assay [1] concerns the target T1, Human vitronectin receptor (αvβ3) (Homo sapiens, UniProt P05106+P06756).
T1 construct: Human vitronectin receptor (αvβ3) was purified from human placenta; from tissue; host or cells: human placenta
Briefly: Vitronectin adhesion assay (solid phase receptor assay, competition with biotinylated vitronectin). Type of assay: binding. As to conditions: read-out: AvB3 IC50. In short, it runs like this:
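Purified human αvβ3 coated overnight at 4 °C in TBS with 1.0 mM Ca++, Mg++, Mn++, pH 7.4; compounds (top final 1.0×10^−4 M) competed with 1 nM biotinylated vitronectin for 2 h at room temperature. Bound ligand detected by HRP anti-biotin/OPD at A450; values normalized to no-competitor controls, four-parameter curve fit.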

Assay [2] has as its system M21 human melanoma cells. Description: M21 melanoma cell adhesion assay (αvβ3-dependent adhesion to human fibrinogen-coated plates). Type of assay: cell-based. The protocol: M21 MELANOMA CELL ADHESION ASSASY
This assay involves an αvβ3-dependent adhesion of M21 human melanoma cells to human fibrinogen-coated plastic tissue culture dishes.
Fibrinogen was purified from human plasma. Fibronectin and plasminogen were eliminated from the preparation by passing the sample over gelatin-sepharose 4B and lysine-sepharose 4B resins, respectively. The fibrinogen is diluted to 10 μg/mL in coating buffer ([…] Tris-HCl, 150 mM NaCl, pH 7.4). 100 μL of diluted fibrinogen is added to each well of a 96-well Immulon 2 microtiter plate (Dynatech; Chantilly, Va.) and allowed to coat overnight at 4° C. Plates are blocked with 1% BSA (Miles/Pentex; Kankakee, Ill.) in adhesion buffer (Hank's balanced salt solution without Ca^++ or Mg^++ [HBSS−−], 50 mM Hepes, 1 mg/mL BSA, pH 7.4) for 1 hour at 37° C.
M21 human melanoma cells were provided by Dr. J. Smith, La Jolla Cancer Research Institute. M21 cells are harvested from tissue culture flasks by washing with HBSS−− and adding cell dissociation solution (Sigma) and incubating for 5 minutes at 37° C. Harvested cells are washed 3 times with adhesion assay buffer containing 200 μM Mn^++. Cells are counted and suspended to a density of 2×10^6/mL in adhesion assay buffer containing 200 μM Mn^++. M21 cells are pre-incubated with antagonists of αvβ3 for 30 minutes at room temperature. Following the pre-incubation, the solutions containing a mixture of cells and antagonists are added to each well of the microtiter plate and allowed to bind for 30 minutes at 37° C.
Following adhesion, plates are gently washed 3 times with 200 μL of wash buffer (50 mM Tris-HCl, 150 mM NaCl, pH 7.4) using large bore pipet tips. Plates are briefly blotted dry and 100 μL of cell lysis buffer (50 mM sodium acetate, pH 5.0, 0.5% Triton X-100, 0.3 mg/mL p-nitrophenyl phosphate [Sigma] is added to each well. Plates are incubated for 60 minutes at 37° C. and 50 μL of 1N NaOH is added to stop the reaction. The absorbance of the wells at […] is read using an automatic plate reader.

The target in assay [3] is T2, Human fibrinogen receptor (αIIbβ3) (Homo sapiens, UniProt P05106+P08514).
T2 construct: Human fibrinogen receptor (αIIbβ3) was purified from outdated platelets; from tissue; host or cells: outdated human platelets
Briefly: Purified IIb/IIIa receptor assay (solid phase receptor assay, competition with biotinylated vitronectin). As to conditions: read-out: IIb/IIIa IC50. Type of assay: binding. The essentials:
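Competition format: 1 nM biotinylated vitronectin plus test compound (highest 1.0×10^−4 M), 2 h at room temperature on wells coated with platelet-derived αIIbβ3. Buffer was TBS containing 1.0 mM Ca, Mg, Mn, pH 7.4. HRP anti-biotin readout at 450 nm; normalized to maximum binding, four-parameter curve fit.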

For assay [4], the system named is platelet rich plasma. Briefly: Human platelet rich plasma assay (ADP induced platelet aggregation). The settings on record: read-out: Human PRP. It is filed as cell-based. In short, it runs like this:
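Citrated platelet-rich plasma from aspirin-free healthy human donors was stirred at 37 °C and preincubated with compound for 1 min. Aggregation was then triggered with ADP (added as a 200 uM solution) and recorded photometrically for 3 min. Dose–response curves were built from % inhibition of the maximal saline-control response.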

Where [5] appears, read: Homo sapiens, M21; read-out: M21 Melanoma Cells IC50.
[6] abbreviates: Homo sapiens, Platelet, ADP induced platelet aggregation in human platelet rich plasma.

For the compound `O=C(O)CC(NC(=O)CNC(=O)c1cccc(NC(=O)NCc2ccccc2)c1)c1cccnc1` (racemic) [Example 106, (±)β-[[2-[[[3-[[[(phenylmethyl)amino]carbonyl]aminophenyl]carbonyl]amino]acetyl]-amino]pyridine-3-propanoic acid], the IC50 stood at 0.79 nM in assay [1], 0.81 nM in assay [2] (read-out: M21 Melanoma Cells IC50) and 3140 nM in assay [3].

With `C#C[C@@H](CC(=O)O)NC(=O)CNC(=O)c1cccc(NC(=N)N)c1` [Example 70, 3R-[[2-[[[3-[(aminoiminomethyl)amino]phenyl]carbonyl]amino]acetyl]amino]-4-pentynoic acid, trifluoroacetate salt], the IC50 was 63 nM in assay [1], > 200000 nM in assay [4] (ADP induced platelet aggregation in human platelet rich plasma), 924 nM in assay [2] (trifluoroacetate salt; read-out: M21 Melanoma Cells IC50) and 3240 nM in assay [3].

For `N=C(N)Nc1cccc(C(=O)NCC(=O)NCCC(=O)O)c1` [Example 97, N-[2-[[[3-[(aminoiminomethyl)amino]phenyl]carbonyl]amino]acetyl]-β-alanine], the figures for the IC50 in assay [1], in assay [2] (setting [5]) and in assay [3] were 26.9 nM, 163 nM and 1170 nM, respectively.

With `O=C(O)CC(NC(=O)CNC(=O)c1cccc(NC(=O)NCc2ccccc2)c1)c1ccccc1` (stereo not drawn) [Example 119, β-[[2-[[[3-[[[(phenylmethyl)amino]carbonyl]amino]phenyl]carbonyl]amino]acetyl]amino]benzenepropanoic acid], the IC50 was 3.61 nM in assay [1]; > 20000 nM in assay [4] (Homo sapiens, Platelet); 90.4 nM in assay [2] (Homo sapiens, M21, read-out: M21 Melanoma Cells IC50); 11100 nM in assay [3].

For `CCOC(=O)CC(NC(=O)CNC(=O)c1cccc(NC(=N)N)c1)c1ccccc1` (racemic) [Example 3, (±)ethyl β-[[2-[[[3-[(aminoiminomethyl)amino]phenyl]carbonyl]amino]acetyl]amino]benzenepropanoate, trifluoroacetate salt], the IC50 in assay [1] was 498 nM; in assay [2] (setting [5]), 3050 nM; in assay [3], 72900 nM.

In the case of `N=C(N)Nc1cccc(C(=O)NCC(=O)N[C@H](CSc2ccccc2C(=O)O)CC(=O)O)c1` [Example 72, 2-[[2S-[[2-[[[3-[(aminoiminomethyl)amino]phenyl]carbonyl]amino]acetyl]amino]-2-(carboxymethyl)ethyl]thio]benzoic acid, trifluoroacetate salt], the IC50 in assay [1] is 1.21 nM; in assay [4] (setting [6]) it was > 200000 nM; in assay [3], 152 nM.

`NC(=O)/N=C(/N)Nc1cccc(C(=O)NCC(=O)NC(CC(=O)O)c2cc(Cl)cc(Cl)c2)c1` (stereo not drawn) [Example 162, β-[[(2-[[[3-[[amino(aminocarbonyl)imino]methyl]amino]phenyl]carbonyl]amino]acetyl]amino]-3,5-dichlorobenzenepropanoic acid, trifluoroacetate salt]: the IC50 in assay [1] is 4.62 nM; in assay [4] (setting [6]), > 200000 nM; in assay [3], 1340 nM.

On to `Cc1cc(C)cc(C(CC(=O)O)NC(=O)CNC(=O)c2cccc(NC(=N)N)c2)c1` (racemic) [Example 193, (±)β-[[2-[[[3-[(aminoiminomethyl)amino]phenyl]carbonyl]amino]acetyl]amino]-3,5-dimethylbenzenepropanoic acid, trifluoroacetate salt], for which the IC50 was 2.56 nM in assay [1], > 20000 nM in assay [4] (setting [6]) and 209 nM in assay [3].

Take `COC(=O)c1ccccc1SCCC(CC(=O)O)NC(=O)CNC(=O)c1cccc(NC(=N)N)c1` (racemic) [Example 62, (±)methyl 2-[[3-[2-[[[3-[(aminoiminomethyl)amino]phenyl]carbonyl]amino]acetyl]amino]-4-carboxybutyl]thio]benzoate, trifluoroacetate salt]: the IC50 is 1.42 nM in assay [1], > 200000 nM in assay [4] (setting [6]) and 28.4 nM in assay [3].

With `O=C(O)CC(NC(=O)CNC(=O)c1cccc(NC(=O)NCc2ccccc2)c1)c1ccc2c(c1)OCO2` (stereo not drawn) [Example 122, β-[[2-[[[3-[[[(phenylmethyl)amino]carbonyl]amino]phenyl]carbonyl]amino]acetyl]amino]-1,3-benzodioxole-5-propanoic acid], the IC50 in assay [1] was 0.79 nM; in assay [4] (Homo sapiens, Platelet) it was > 20000 nM; in assay [3] it was 420 nM.

For the compound `CCN/C(=N\C#N)Nc1cccc(C(=O)NCC(=O)NC(CC(=O)O)c2ccccc2)c1` (stereo not drawn) [Example 139, β-[[2-[[[3-[[(cyanoimino)(ethylamino)methyl]amino]phenyl]carbonyl]amino]acetyl]amino]benzenepropanoic acid], the results for the IC50 in assay [1], in assay [4] (setting [6]) and in assay [3] were 23.8 nM, > 200000 nM and 16100 nM, respectively.

Regarding `CN/C(=N\C#N)Nc1cccc(C(=O)NCC(=O)NC(CC(=O)O)c2ccccc2)c1` (stereo not drawn) [Example 137, β-[[2-[[[3-[[(cyanoimino)(methylamino)methyl]amino]phenyl]carbonyl]amino]acetyl]amino]benzenepropanoic acid], the values for the IC50 in assay [1], in assay [4] (setting [6]) and in assay [3] were 16.2 nM, > 200000 nM and 6500 nM, respectively.

For `N=C(N)Nc1cccc(C(=O)NCC(=O)NC(CC(=O)O)c2cc(Cl)cc(Cl)c2O)c1` (racemic) [Example 225, (±)β-[[2-[[[3-[(aminoiminomethyl)amino]phenyl]carbonyl]amino]acetyl]amino]-3,5-dichloro-2-hydroxybenzenepropanoic acid, trifluoroacetate salt, monohydrate], the IC50 in assay [1] was 2.76 nM; in assay [4] (setting [6]), > 20000 nM; in assay [3], 471 nM.

In the case of `N=C(N)Nc1cccc(C(=O)NCC(=O)NC(CC(=O)O)CC(=O)O)c1` [Example 53, 3-[[2-[[[3-[(aminoiminomethyl)amino]phenyl]carbonyl]amino]acetyl]amino]pentanedioic acid, trifluoroacetate salt], the IC50 in assay [1] was 54.6 nM; in assay [4] (setting [6]), > 200000 nM; in assay [3], 930 nM.

Turning to `N=C(N)Nc1cccc(C(=O)NCC(=O)NC(CC(=O)O)c2cc(Br)ccc2O)c1` (racemic) [Example 228, (±)β-[[2-[[[3-[(aminoiminomethyl)amino]phenyl]carbonyl]amino]acetyl]amino]-5-bromo-2-hydroxybenzenepropanoic acid, trifluoroacetate salt, monohydrate], the IC50 in assay [1] was 3.36 nM; in assay [4] (setting [6]) it was > 200000 nM; in assay [3], 583 nM.

For `N=C(N)Nc1cccc(C(=O)NCC(=O)NC(CC(=O)O)c2cc([N+](=O)[O-])ccc2O)c1` (racemic) [Example 226, (±)β-[[2-[[[3-[(aminoiminomethyl)amino]phenyl]carbonyl]amino]acetyl]amino]-2-hydroxy-5-nitrobenzenepropanoic acid, trifluoroacetate salt], the IC50 in assay [1] was 7.07 nM; in assay [4] (setting [6]) it was > 200000 nM; in assay [3] it was 2910 nM.

With `N=C(N)Nc1cc(C(=O)NCC(=O)NC(CC(=O)O)c2cc(C(F)(F)F)cc(C(F)(F)F)c2)cc(C(F)(F)F)c1` (racemic) [Example 39, (±)β-[[(2-[[[3-[(aminoiminomethyl)amino]-5-(trifluoromethyl)phenyl]carbonyl]amino]acetyl]amino]-3,5-bis(trifluoromethyl)benzenepropanoic acid, trifluoroacetate salt], the IC50 in assay [1] was 12.2 nM; in assay [4] (setting [6]), > 20000 nM; in assay [3], 1540 nM.

Values taken from patent US6831199B1, “Pyrimidine compounds and derivatives thereof” (G. D. Searle & Co., priority 1995, dated 2004).
